Earlier results on 1 compound are cited in patent publication US12648920B2, “Methods of administering glutathione precursors” (Neuronasal, Inc., priority 2020, dated 2026).

Where only a bound is given, the exact number is not on record here.

For the data set the following is noted: oral.

With `CC(=O)N[C@@H](CS)C(=O)O` [NAC, N-acetylcysteine], the orally bioavailable is recorded as below 10%.
